Measured values published in ChEMBL document CHEMBL1201862, “PubChem BioAssay data set” (2004).
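Grown in 96-well plates, cells were treated for 48 hours with each compound at five concentrations. Insufficient inhibition: endpoint recorded as highest concentration tested. GI50 = concentration required for 50% inhibition of growth.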 Activity calls are given as the source filed them. No stated cut-off is given here; in the data, active = GI50 up to about 1.1 µM and inactive = higher.

What was measured:
Test in all cases: growth of human tumour cells (NCI), 48 h
OVCAR-3 = test system: OVCAR-3
OVCAR-5 = test system: OVCAR-5
COLO 205 = test system: COLO 205
NCI-H226 = test system: NCI-H226
SK-OV-3 = test system: SK-OV-3
UACC-257 = test system: UACC-257
CCRF-CEM = test system: CCRF-CEM
OVCAR-4 = test system: OVCAR-4
BT-549 = test system: BT-549
SK-MEL-28 = test system: SK-MEL-28
T47D = test system: T47D
NCI-H23 = test system: NCI-H23
SK-MEL-5 = test system: SK-MEL-5
Hs-578T = test system: Hs-578T
HL-60 = test system: HL-60
SNB-75 = test system: SNB-75
ACHN = test system: ACHN
LOX IMVI = test system: LOX IMVI
IGROV-1 = test system: IGROV-1
TK-10 = test system: TK-10

Measured: GI50

CCO/C=N/NC(=O)CSc1nc2ccc(I)cc2c(=O)n1Cc1ccccc1
inactive: OVCAR-3 60 µM | OVCAR-5 > 100 µM | COLO 205 57.4 µM | NCI-H226 64.4 µM | SK-OV-3 > 100 µM | UACC-257 > 100 µM | CCRF-CEM 23 µM | OVCAR-4 > 100 µM | BT-549 > 100 µM | SK-MEL-28 > 100 µM | T47D 44.9 µM | NCI-H23 36.9 µM | SK-MEL-5 > 100 µM | Hs-578T 34.6 µM | HL-60 > 100 µM | SNB-75 40.5 µM | ACHN > 100 µM | LOX IMVI 63.8 µM | IGROV-1 39 µM | TK-10 34.7 µM

C[N+]1(C)CCOC(O)(c2ccccc2)C1 (stereo not given)
inactive: OVCAR-3 > 100 µM | OVCAR-5 > 100 µM | COLO 205 > 100 µM | NCI-H226 > 100 µM | SK-OV-3 > 100 µM | UACC-257 > 100 µM | CCRF-CEM > 100 µM | OVCAR-4 > 100 µM | BT-549 > 100 µM | SK-MEL-28 > 100 µM | T47D > 100 µM | NCI-H23 > 100 µM | SK-MEL-5 > 100 µM | Hs-578T > 100 µM | HL-60 > 100 µM | SNB-75 > 100 µM | ACHN > 100 µM | LOX IMVI > 100 µM | IGROV-1 > 100 µM | TK-10 > 100 µM

CC(C)(C)c1cc(OCc2nn3c(Cc4ccccc4)nnc3s2)c(Cl)cc1OCc1nn2c(Cc3ccccc3)nnc2s1
inactive: OVCAR-3 15.6 µM | OVCAR-5 60.8 µM | COLO 205 24.7 µM | NCI-H226 > 100 µM | SK-OV-3 > 100 µM | UACC-257 23.6 µM | CCRF-CEM 6.67 µM | OVCAR-4 19.8 µM | BT-549 25.1 µM | SK-MEL-28 36.2 µM | T47D 3.43 µM | NCI-H23 39.1 µM | SK-MEL-5 8.65 µM | Hs-578T > 100 µM | HL-60 23.9 µM | SNB-75 91 µM | ACHN 14.4 µM | LOX IMVI 37.1 µM | IGROV-1 20.7 µM | TK-10 34.4 µM
